# Reference: publication PMC10689823, “Discovery of a Drug-like, Natural Product-Inspired DCAF11 Ligand Chemotype” (Nature Communications, 2023)
# Experiments:
# DCAF11 = DCAF11 (Homo sapiens, UniProt Q8TEB1); assay: In-gel fluorescence labelling of purified DCAF11; assay type: binding; settings: purified DCAF11 pretreated with compound 2 for 40 min, then 18 for 40 min
# Experimental: Purified DCAF11 protein (1 μg, Origene, TP760719) was diluted in PBS buffer that is mixed with compound 2 or BODIPY derivative 18 at the indicated concentration at room temperature. Samples were diluted with 5 × SDS sample loading buffer and heated at 95 °C for 5 min. Proteins were separated using SDS-PAGE and were visualized using the ChemiDoc MP Imaging System (BIO-RAD) at 488 nm and the results were analyzed by Image Lab (BIORAD).
# PDEδ = PDEδ (Homo sapiens, UniProt O43924); assay: PDEδ levels by Western blot in Jurkat cells; assay type: cell-based; set-up: endogenous in cells; host or cells: Jurkat; settings: 10 μM, 6 h
# Hep G2 cells = assay: Cell viability assay (CellTiter-Glo) in Hep G2 cells; assay type: cell-based; settings: Homo sapiens, HepG2, 72 h
# Experimental: Jurkat cells (3 × 10^3) and Hep G2 cells (3.5 × 10^3) were seeded in 96-well plates in 100 μL culture medium. Cells were treated with compounds dissolved in 50 μl medium at the indicated concentration for 72 h, at the same time, one plate of cells without compounds treatment was used for the cell count at time zero. After adding 40 μl of CellTiter-Glo® reagent (Promega, G7571) to each well for 10 min at room temperature, the luminescence was measured on a Spark® Multimode Microplate Reader (Tecan). The data was analyzed by the GraphPad Prism 9.0.
# BRD2 [1] = molecular target: T1, BRD2 (Homo sapiens, UniProt P25440); assay: BRD2 levels by Western blot in KBM7 cells (WT, DCAF11 knockout, DDB1 knockout); assay type: cell-based; set-up: endogenous in cells; host or cells: KBM7 (WT, DCAF11 KO, DDB1 KO); settings: for BRD2 degradation after knockout of DDB1 in KBM7 cells: 0.5 µg/mL Dox for 3 days, then compound 4 h; for BRD2 degradation in DCAF11 knockout (KO1 and KO2) KBM7 cells: 9 at 3 μM, 10 at 10 μM, 11 at 10 μM, 6 h; for BRD2 degradation in KBM7 cells: 4 h
# Experimental: (§1) Cells were washed with PBS and lysed in lysis buffer (50 mM Tris-HCl, pH 7.4, 150 mM NaCl, 1% Triton X-100, 1% sodium deoxycholate, 0.1% SDS) with complete protease inhibitor cocktail (Roche, 11836170001) for 30 min on ice. For Ramos cells, cell pellets were lysed in lysis buffer (50 mM Tris-HCl, pH 8, 150 mM NaCl, 1% NP-40, 0.5% sodium deoxycholate) with complete protease inhibitor cocktail. After centrifugation at 16,000 x g, the supernatant was transferred into a new tube and the protein concentration was determined by DC protein assay (BIO-RAD, 5000116). Proteins were separated by SDS-PAGE and transferred to a PVDF membrane (Thermo scientific, 0.45 μm, 88518). For PDEδ, BRD2, GAPDH, BRD4, Vinculin and BTK, the membranes were blocked with Intercept® Blocking Buffer (LI-COR Biosciences, 927-70001) at room temperature for 1 h. The primary antibodies for these proteins were diluted with Intercept® Blocking Buffer (1:500 for PDEδ, 1:3000 for Vinculin, and 1:1000 for other proteins) and incubated with the membranes overnight at 4 °C. Membranes were washed with PBS + 0.1% Tween 20 (PBS-T) five times and incubated with secondary antibodies conjugated to IRDye® Infrared Fluorescent Dyes (1:5000, LI-COR Biosciences) at room temperature for 1 h with protection from light. After washing the membrane, signals were visualized using the ChemiDoc MP Imaging System (BIO-RAD Laboratories). For detection of LC3B, BRD3, BLK, DCAF11, DDB1 RBX1, FIP200, V5- and FLAG-Tag the membranes were blocked with 5% milk in PBS-T at room temperature for 1 h. The primary antibodies for these proteins were diluted in 5% milk in PBS-T buffer (1:200 for BRD3, 1:1000 for other proteins) and incubated with the membranes overnight at 4 °C. Membranes were washed with PBS-T five times and incubated with HRP secondary antibodies (1:1500) at room temperature for 1 h. After washing the membrane, protein detection was performed using Western blotting detection reagent (Thermo Scientific, 34095) and the ChemiDoc MP Imaging System (BIO-RAD). Relative band intensities were quantified using Image Lab (BIO-RAD).
# DCAF11- or FIP200 (RB1CC1)-targeting sgRNAs were lentivirally packaged using PEI transfection of Lenti-X cells. The viral supernatant was harvested after 72 h, cleared of cellular debris by filtration through a 0.45-µm PES filter and stored in aliquots at −80 °C. The appropriate amount of viral supernatant was transduced into KBM7 cells (1 × 10^6 cells/mL) via spinfection (2000 rpm, 1 h, 37 °C) with polybrene (8 µg/mL). Two days post transduction, the cells were selected with puromycin (1 µg/mL) for a total of 5 days, after which the knockout pools were validated via western blotting.
# BRD2 and DCAF11 = molecular target: T2, BRD2 and DCAF11 (Homo sapiens, UniProt P25440+Q8TEB1); assay: Co-immunoprecipitation of FLAG-BRD2 and HA-DCAF11 in Hep G2 cells; assay type: cell-based; settings: MG-132 10 μM, 40 min, compound 10 μM
# T2 construct: expressed in transfected cells; host or cells: Hep G2
# Experimental: Hep G2 cells were seeded in 6-well plates, 24 h later, cells were transiently transfected with HA-DCAF11 (Sino Biological, HG16257-NY) and FLAG-BRD2 for 48 h using the FuGENE® HD transfection reagent (Promega, E2311). […] After determination of the protein concentration, cell lysates were incubated with anti-FLAG magnetic beads (30 μl / sample, Sigma, M8823) at 4 °C for 4 h and washed three times with washing buffer (0.2% NP-40, 25 mM Tris-HCl pH 7.4, 150 mM NaCl). The beads were diluted with PBS, mixed with SDS sample buffer and heated at 95 °C for 10 min, followed by western blot analysis.
# BRD2 [2] = molecular target: T1, BRD2; assay: BRD2 levels by Western blot in Hep G2 and MDA-MB-231 cells (incl. RNA interference); assay type: cell-based; set-up: endogenous in cells; host or cells: Hep G2; MDA-MB-231
# Experimental: as §1
Compound,competition of DCAF11 labelling by 18 (DCAF11),"PDEδ protein levels, ligands alone or in combination (PDEδ)",GI50 (Hep G2 cells) [µM],BRD2 degradation after knockout of DDB1 in KBM7 cells (BRD2 [1]),BRD2 degradation in DCAF11 knockout (KO1 and KO2) KBM7 cells (BRD2 [1]),BRD2 degradation in KBM7 cells (BRD2 [1]),complex formation between BRD2 and DCAF11 (co-immunoprecipitation) (BRD2 and DCAF11),BRD2 depletion in Hep G2 and MDA-MB-231 cells (BRD2 [2]; 4 h),"BRD2 degradation after siRNA-mediated depletion of RBX1 (BRD2 [2]; MDA-MB-231 cells, RBX1 siRNA 30 nM, 48 h, 3 μM compound 9, 4 h)"
O=C1Nc2ccc(Br)cc2C1=Cc1cc(Br)c(O)c(Br)c1 [Compound 2],binding is prevented,did not reduce PDEδ protein levels,> 30,–,–,–,–,–,–
Cc1sc2c(c1C)C(c1ccc(Cl)cc1)=N[C@@H](CC(=O)NCCOCCOCCOCCOCCNC(=O)COc1c(Br)cc(/C=C3\C(=O)Nc4ccc(Br)cc43)cc1Br)c1nnc(C)n1-2 [Compound 9],–,–,–,did not lead to BRD2 degradation anymore,abolished,displayed BRD2-degrading activity,mediates complex formation between BRD2 and DCAF11,BRD2 depletion was also observed,did not induce degradation of BRD2 anymore
Cc1sc2c(c1C)C(c1ccc(Cl)cc1)=NC(CC(=O)NCCOCCOCCOCCOc1c(Br)cc(C=C3C(=O)Nc4ccc(Br)cc43)cc1Br)c1nnc(C)n1-2 (stereo not drawn) [Compound 10],–,–,–,did not lead to BRD2 degradation anymore,abolished,displayed BRD2-degrading activity,–,–,–
